From ChEMBL document CHEMBL1201862, “PubChem BioAssay data set” (2004)
Calls of active or inactive are those of the source.

Assays:
[1] = target: Adenosylmethionine-8-amino-7-oxononanoate aminotransferase (Mycobacterium tuberculosis, UniProt P9WQ81); test: Mycobacterium tuberculosis BioA enzyme inhibitor Measured in Biochemical System Using Plate Reader - 2163-02_Inhibitor_Dose_CherryPick_Activity.; assay type: functional, Mycobacterium tuberculosis UT205
[2] = bead-based luminescence quenchers, dual-tagged ARNT – biochemical, AlphaScreen, cherry-pick, artefact control for ARNT-TACC3 interaction inhibitor project, dose response (AID 651705); assay type: functional;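 note: AlphaScreen bead proximity signal that flags compounds interfering with the detection technology; potency reflects signal decrease which marks the compound as an assay artifact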
Beta-galactosidase = Beta-galactosidase (Escherichia coli, UniProt Q8VNN2); test: PubChem AID 485352; assay type: functional
Beta-galactosidase, sequence (Q8VNN2 whole entry): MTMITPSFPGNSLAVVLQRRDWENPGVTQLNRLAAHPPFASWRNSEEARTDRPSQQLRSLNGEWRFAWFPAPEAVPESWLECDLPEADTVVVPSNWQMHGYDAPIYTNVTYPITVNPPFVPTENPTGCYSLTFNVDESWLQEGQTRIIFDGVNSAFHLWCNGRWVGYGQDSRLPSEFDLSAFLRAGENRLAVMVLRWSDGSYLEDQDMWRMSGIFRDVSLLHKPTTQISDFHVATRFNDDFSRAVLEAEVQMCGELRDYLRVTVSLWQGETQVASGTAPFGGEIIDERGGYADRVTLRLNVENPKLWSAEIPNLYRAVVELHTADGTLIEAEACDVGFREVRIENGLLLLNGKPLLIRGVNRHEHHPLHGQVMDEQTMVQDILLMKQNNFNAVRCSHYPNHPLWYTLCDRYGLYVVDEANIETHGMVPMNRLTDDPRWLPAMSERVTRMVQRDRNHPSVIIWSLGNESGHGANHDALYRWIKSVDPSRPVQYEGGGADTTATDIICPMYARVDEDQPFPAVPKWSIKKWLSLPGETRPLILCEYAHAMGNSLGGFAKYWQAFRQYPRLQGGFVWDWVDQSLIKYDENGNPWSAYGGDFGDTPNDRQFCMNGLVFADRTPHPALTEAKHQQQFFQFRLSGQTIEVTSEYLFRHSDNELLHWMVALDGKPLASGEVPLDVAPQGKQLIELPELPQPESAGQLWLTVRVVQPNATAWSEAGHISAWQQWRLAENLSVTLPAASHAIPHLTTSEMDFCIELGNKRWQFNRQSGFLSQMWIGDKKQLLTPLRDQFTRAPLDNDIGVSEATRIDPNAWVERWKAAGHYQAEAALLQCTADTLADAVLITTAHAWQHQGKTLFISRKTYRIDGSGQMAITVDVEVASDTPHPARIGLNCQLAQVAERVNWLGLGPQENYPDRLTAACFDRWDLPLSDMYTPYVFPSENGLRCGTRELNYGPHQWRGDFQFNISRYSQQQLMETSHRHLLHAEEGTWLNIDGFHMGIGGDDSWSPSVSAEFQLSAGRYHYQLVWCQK

[3] = target: T1, Type-1 angiotensin II receptor (Homo sapiens, UniProt P30556); test: antagonism of angiotensin II type 1 receptor – cell-based, uHTS hits, selectivity assay for APJ receptor antagonist project, dose response (AID 463214); assay type: functional;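 note: antagonist potency against angiotensin II stimulated AT1 response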
T1 sequence (P30556 whole entry): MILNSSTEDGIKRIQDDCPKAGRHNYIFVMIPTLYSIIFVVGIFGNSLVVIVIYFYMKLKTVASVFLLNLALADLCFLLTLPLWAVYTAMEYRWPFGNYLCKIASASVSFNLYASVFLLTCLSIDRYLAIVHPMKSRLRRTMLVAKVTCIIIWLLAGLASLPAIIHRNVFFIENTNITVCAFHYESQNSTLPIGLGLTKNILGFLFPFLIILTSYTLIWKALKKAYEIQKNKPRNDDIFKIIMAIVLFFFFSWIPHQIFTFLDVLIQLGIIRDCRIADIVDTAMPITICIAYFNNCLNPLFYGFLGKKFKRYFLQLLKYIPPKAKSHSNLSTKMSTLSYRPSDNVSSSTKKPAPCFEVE

[4] = viability of PTEN-deleted HCT116 cells – cell-based, HCT116 PTEN knockout, dose response (AID 1047); assay type: functional;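 note: HCT116 colon tumor cells with PTEN knocked out; cells exposed to compound for 60 hours before readout; potency for loss of cell viability measured by luminescence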
[5] = viability of HCT116 lacking mutant beta-catenin – cell-based, human colon tumor, dose response (AID 1045); assay type: functional;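 note: HCT116 colon tumor cells with beta catenin knocked out; cells exposed to compound for 60 hours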
[6] = THP-1 cell cytotoxicity, dose response, cytotoxicity control for non-replicating M. tuberculosis project (AID 489025); assay type: functional
[7] = Vero E6 cell cytotoxicity, dose response, cytotoxicity control for non-replicating M. tuberculosis project, secondary assay (AID 492998); assay type: functional, VeroE6; settings: Vero C1008
cells = assay type: functional
[8] = target: Tyrosine-protein phosphatase non-receptor type 11 (Homo sapiens, UniProt Q06124); test: PTPN11 enzyme inhibitors – biochemical, selectivity assay for STEP inhibitor project, dose response (AID 602367); assay type: functional; settings: read-out: IC50_Mean
Tyrosine-protein phosphatase non-receptor type 11, sequence (Q06124 whole entry): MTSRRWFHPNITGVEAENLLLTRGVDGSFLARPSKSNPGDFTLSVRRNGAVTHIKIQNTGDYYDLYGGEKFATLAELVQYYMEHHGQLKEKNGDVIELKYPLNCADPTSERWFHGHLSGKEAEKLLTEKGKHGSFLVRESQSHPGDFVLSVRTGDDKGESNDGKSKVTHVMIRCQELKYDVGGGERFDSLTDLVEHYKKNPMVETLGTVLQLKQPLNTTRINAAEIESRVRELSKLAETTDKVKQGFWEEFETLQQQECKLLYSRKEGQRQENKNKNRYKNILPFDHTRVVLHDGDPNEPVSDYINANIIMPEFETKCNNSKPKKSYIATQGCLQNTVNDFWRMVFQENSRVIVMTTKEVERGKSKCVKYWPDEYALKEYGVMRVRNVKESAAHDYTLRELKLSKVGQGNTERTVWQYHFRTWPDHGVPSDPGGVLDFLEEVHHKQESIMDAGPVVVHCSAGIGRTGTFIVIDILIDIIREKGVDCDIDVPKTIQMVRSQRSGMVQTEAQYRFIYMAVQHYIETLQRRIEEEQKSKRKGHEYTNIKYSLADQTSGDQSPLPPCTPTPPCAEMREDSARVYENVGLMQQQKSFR

[9] = target: Tyrosine-protein phosphatase non-receptor type 5 (Homo sapiens, UniProt P54829); test: PTPN5 enzyme inhibition – biochemical, fluorescence intensity, uHTS hits, confirmation (AID 602372); assay type: functional; settings: read-out: IC50_Mean
Tyrosine-protein phosphatase non-receptor type 5, sequence (P54829 whole entry): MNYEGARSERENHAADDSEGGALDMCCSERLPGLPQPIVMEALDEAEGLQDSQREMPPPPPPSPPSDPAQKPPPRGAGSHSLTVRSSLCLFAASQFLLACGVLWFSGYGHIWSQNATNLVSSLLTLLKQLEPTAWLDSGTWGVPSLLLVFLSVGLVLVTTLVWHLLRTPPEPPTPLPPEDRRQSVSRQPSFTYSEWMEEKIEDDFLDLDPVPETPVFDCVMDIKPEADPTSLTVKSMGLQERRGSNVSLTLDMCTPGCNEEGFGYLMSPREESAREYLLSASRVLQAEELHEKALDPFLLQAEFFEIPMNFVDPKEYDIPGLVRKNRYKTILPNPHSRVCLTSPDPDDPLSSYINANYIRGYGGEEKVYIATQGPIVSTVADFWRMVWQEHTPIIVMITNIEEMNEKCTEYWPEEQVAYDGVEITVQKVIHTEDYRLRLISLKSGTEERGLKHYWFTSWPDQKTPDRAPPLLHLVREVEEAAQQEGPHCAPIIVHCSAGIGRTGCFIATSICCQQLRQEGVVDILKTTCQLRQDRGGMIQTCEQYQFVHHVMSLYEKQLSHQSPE

[10] = target: Dual specificity protein phosphatase 3 (Homo sapiens, UniProt P51452); test: VHR phosphatase inhibition, dose response, selectivity assay for STEP inhibitor project, biochemical (AID 602374); assay type: functional; settings: read-out: IC50_Mean
Dual specificity protein phosphatase 3, sequence (P51452 whole entry): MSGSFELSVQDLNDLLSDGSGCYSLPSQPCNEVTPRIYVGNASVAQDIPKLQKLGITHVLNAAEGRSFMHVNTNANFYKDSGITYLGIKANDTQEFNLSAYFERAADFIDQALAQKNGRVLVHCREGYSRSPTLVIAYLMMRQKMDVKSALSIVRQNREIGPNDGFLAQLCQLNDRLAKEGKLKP

[11] = test system: Streptococcus sp. 'group A'; test: Streptococcus pyogenes SK(-)GAS viability under kanamycin – luminescence, BacTiterGlo, confirmation, counter-screen for streptokinase expression inhibitor project, dose response (AID 1900); assay type: functional, organism-based
Streptococcus = test: GAS UMAA2166 growth inhibition – luminescence, BacTiterGlo, counter-screen for streptokinase expression inhibitor project, dose response (AID 1915); assay type: functional, organism-based;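 note: potency for reduction of bacterial viability or growth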
Vero = test: viability of Vero cells under compound – cytotoxicity control for flavivirus capping enzyme inhibitors (AID 588742); assay type: functional; settings: Chlorocebus sabaeus
INS1 = test: INS-1E survival protection against cytokine death – cell-based, luminescence, retest, dose response (AID 449756); assay type: functional; settings: Rattus norvegicus;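 note: cell death triggered by IL-1 beta plus TNF-alpha plus IFN-gamma mixture; protective hits raise ATP signal compared with cytokine alone wells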
[12] = viability loss in THP-1 monocytes – THP-1 cells, cytotoxicity control for Vif-APOBEC3G degradation inhibitor project, dose response (AID 1117359); assay type: functional; settings: THP-1
[13] = inhibition of ARNT PAS-B/TACC3 complex formation – biochemical, AlphaScreen, cherry-picked samples, confirmation (AID 651703); assay type: functional, Homo sapiens;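 note: His-tagged ARNT PAS-B domain paired with GST-TACC3 E629A dimer coactivator fragment; potency of inhibitors that break up the complex and lower AlphaScreen signal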
Hexokinase HKDC1 = target: T2, Hexokinase HKDC1 (Homo sapiens, UniProt Q2TB90); test: inhibition of HKDC1 glucose phosphorylation – biochemical, W721R variant, dose response (AID 504729); assay type: functional
T2 sequence (Q2TB90 whole entry): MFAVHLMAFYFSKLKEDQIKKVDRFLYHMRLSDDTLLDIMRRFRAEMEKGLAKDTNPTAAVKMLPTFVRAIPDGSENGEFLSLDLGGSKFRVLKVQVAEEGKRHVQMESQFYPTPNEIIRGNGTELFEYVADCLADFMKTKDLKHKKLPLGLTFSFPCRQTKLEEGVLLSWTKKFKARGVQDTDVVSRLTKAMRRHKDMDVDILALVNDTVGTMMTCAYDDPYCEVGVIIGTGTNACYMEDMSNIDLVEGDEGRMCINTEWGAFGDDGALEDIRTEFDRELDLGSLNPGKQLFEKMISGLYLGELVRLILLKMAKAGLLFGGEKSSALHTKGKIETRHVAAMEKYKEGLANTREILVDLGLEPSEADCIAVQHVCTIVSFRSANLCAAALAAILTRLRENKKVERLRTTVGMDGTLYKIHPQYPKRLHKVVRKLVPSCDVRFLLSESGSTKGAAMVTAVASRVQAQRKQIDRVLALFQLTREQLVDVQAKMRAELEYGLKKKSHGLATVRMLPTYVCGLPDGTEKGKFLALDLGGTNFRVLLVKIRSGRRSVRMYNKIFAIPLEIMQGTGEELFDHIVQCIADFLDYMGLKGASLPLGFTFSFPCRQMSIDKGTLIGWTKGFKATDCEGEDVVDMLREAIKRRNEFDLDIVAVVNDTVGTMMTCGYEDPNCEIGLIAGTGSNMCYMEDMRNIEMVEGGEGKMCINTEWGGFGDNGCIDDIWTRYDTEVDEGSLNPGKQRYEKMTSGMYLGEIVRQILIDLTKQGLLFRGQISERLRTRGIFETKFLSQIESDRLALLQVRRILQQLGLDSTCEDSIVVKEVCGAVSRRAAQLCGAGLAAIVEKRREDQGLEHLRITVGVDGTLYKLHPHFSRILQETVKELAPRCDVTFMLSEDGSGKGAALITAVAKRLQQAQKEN

Genome polyprotein = Genome polyprotein (dengue virus type 2, UniProt P29990); test: flavivirus cap methylation enzyme inhibition – biochemical, confirmation dose response, primary screen (AID 588689); assay type: functional
Genome polyprotein, sequence (P29990 2492-3391 limits assumed): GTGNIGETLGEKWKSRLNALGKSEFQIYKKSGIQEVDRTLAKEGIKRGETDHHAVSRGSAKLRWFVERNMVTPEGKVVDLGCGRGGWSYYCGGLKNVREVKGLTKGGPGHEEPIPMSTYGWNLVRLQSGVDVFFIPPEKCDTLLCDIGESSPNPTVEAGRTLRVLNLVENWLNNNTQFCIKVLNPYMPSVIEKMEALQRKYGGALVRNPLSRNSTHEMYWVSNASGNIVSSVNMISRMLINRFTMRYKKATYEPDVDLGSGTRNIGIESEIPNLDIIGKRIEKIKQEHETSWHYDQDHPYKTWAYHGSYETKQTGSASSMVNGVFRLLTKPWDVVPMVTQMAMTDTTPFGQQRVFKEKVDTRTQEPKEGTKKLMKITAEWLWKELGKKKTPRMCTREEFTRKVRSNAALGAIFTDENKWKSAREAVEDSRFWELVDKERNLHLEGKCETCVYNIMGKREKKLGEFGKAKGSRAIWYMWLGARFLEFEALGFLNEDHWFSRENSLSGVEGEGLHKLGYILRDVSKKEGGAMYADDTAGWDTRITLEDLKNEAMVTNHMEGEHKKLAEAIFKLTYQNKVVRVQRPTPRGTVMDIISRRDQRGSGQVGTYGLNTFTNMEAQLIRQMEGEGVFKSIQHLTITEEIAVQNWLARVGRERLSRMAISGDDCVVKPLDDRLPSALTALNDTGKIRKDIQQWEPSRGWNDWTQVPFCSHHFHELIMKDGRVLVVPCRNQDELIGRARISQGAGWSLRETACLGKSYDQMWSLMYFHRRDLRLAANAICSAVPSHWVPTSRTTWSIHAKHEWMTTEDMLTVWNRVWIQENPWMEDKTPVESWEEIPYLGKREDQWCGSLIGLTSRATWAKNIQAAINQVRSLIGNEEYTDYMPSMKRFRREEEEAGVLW

[14] = target: T3, Tyrosyl-DNA phosphodiesterase 2 (Homo sapiens, UniProt O95551); test: potency against TDP2 phosphodiesterase activity – biochemical, epi absorbance, IC50, dose response (AID 743297)
T3 sequence (O95551 whole entry): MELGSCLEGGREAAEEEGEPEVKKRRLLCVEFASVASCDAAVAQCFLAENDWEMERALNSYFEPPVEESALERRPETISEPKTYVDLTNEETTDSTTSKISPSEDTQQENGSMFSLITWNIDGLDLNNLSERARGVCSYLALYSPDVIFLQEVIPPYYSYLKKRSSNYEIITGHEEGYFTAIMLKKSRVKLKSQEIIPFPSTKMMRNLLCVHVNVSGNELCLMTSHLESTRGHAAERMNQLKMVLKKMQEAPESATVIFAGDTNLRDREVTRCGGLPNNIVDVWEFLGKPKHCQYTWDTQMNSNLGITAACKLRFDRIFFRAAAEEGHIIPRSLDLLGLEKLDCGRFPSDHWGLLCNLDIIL

[15] = target: DNA (cytosine-5)-methyltransferase 1 (Homo sapiens, UniProt P26358); test: inhibition of DNA methylation by DNMT1 – biochemical, fluorescent molecular beacon, confirmation (AID 602386); assay type: functional
[16] = target: T4, Rac GTPase-activating protein 1 (Homo sapiens, UniProt Q9H0H5); test: blockers of MgcRacGAP-driven Rac1 GTP hydrolysis – biochemical, ADP Hunter fluorescence, primary and confirmatory, confirmation (AID 624330); assay type: functional
T4 sequence (Q9H0H5 whole entry): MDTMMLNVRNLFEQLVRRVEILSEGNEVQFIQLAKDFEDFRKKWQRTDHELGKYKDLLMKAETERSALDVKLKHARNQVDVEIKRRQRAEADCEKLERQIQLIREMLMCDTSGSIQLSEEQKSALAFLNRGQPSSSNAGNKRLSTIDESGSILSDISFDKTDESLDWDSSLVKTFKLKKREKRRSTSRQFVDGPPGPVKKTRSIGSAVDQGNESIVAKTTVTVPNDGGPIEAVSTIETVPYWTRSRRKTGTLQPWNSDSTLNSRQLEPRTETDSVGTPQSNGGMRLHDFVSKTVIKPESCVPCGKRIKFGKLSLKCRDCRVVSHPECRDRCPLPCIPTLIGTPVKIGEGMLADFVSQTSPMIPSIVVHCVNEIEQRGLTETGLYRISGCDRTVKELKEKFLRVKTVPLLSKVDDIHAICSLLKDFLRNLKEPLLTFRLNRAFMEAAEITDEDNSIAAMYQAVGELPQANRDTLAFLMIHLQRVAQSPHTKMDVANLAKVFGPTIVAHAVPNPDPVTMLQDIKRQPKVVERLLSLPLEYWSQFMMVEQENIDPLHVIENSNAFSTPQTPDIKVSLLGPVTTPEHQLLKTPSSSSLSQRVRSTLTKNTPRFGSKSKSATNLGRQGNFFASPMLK

Phospholipase D1 = target: T5, Phospholipase D1 (Homo sapiens, UniProt Q13393); test: cellular phospholipase D1 inhibition IC50 – cell-based, dose response (AID 602151); assay type: functional;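 note: cellular PLD1 assay in Calu-1 cells stimulated with PMA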
T5 sequence (Q13393 whole entry): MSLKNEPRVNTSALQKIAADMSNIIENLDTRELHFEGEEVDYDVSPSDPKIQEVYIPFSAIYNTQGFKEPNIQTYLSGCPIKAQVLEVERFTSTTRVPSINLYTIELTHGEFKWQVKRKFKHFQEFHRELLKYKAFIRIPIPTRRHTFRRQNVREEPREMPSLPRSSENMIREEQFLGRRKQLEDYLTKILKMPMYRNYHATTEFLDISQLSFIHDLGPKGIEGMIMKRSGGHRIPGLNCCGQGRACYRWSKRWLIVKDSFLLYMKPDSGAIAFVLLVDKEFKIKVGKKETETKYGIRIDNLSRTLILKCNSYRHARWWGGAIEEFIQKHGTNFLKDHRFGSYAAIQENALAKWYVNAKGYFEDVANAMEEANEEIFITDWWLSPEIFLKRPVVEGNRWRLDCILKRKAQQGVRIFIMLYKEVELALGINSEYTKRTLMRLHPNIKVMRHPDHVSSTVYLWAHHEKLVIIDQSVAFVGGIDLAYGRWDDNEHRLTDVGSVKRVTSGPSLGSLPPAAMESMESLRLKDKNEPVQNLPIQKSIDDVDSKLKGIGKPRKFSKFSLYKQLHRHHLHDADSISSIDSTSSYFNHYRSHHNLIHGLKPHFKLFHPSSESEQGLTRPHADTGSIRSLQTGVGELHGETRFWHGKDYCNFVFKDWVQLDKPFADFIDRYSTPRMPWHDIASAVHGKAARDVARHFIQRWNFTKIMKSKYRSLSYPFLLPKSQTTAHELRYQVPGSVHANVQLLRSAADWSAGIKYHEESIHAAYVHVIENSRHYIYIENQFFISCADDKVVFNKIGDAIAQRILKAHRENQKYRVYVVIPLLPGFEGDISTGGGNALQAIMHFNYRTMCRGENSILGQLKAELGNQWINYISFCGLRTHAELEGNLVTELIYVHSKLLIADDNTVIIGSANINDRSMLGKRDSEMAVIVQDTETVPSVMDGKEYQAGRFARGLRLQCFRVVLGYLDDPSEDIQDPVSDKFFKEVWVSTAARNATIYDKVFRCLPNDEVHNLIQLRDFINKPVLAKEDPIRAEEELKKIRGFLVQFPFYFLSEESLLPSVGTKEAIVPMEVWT

Phospholipase D2 = Phospholipase D2 (Homo sapiens, UniProt O14939); test: cellular phospholipase D2 inhibition IC50 – cell-based, dose response (AID 602147); assay type: functional;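 note: cellular assay in HEK293 cells overexpressing GFP-tagged PLD2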
Phospholipase D2, sequence (O14939 whole entry): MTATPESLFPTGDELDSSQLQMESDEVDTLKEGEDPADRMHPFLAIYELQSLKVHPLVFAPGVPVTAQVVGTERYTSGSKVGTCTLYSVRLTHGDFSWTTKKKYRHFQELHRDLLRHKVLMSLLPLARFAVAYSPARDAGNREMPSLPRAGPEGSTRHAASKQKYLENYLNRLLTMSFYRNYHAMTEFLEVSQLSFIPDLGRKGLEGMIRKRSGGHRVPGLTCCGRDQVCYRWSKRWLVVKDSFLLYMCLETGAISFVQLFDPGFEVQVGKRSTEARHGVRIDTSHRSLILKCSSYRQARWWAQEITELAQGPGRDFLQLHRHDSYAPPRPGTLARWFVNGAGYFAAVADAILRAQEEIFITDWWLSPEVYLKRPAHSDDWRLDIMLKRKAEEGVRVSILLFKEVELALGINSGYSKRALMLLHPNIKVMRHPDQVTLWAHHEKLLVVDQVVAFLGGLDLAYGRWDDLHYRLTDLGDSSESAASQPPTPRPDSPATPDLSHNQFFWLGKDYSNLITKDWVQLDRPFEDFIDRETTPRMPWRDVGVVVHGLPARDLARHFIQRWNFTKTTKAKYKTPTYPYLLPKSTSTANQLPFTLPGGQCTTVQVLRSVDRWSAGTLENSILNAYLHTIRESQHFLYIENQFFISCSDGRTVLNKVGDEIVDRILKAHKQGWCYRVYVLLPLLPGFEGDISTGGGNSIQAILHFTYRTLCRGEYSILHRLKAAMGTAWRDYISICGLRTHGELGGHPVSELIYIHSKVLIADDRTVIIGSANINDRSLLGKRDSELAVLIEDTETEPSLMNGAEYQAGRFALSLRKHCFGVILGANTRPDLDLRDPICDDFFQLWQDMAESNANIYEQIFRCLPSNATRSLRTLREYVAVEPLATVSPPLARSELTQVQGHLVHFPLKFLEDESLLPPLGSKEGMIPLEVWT

Adenosylmethionine-8-amino-7-oxononanoate aminotransferase, sequence (P9WQ81 whole entry): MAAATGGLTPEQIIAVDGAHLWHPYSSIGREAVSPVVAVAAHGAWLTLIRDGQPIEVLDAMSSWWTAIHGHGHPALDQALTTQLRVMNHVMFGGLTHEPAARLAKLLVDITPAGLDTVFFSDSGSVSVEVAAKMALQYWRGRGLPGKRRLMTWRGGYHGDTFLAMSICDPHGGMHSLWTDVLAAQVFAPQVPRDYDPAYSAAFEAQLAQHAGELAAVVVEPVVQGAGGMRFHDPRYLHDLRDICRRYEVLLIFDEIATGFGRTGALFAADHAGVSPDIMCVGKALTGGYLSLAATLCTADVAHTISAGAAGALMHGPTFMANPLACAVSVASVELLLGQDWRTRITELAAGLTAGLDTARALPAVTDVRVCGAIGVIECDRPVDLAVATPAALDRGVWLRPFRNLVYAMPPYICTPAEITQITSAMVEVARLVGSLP

CC(C)n1c(N2CCN(C(=O)c3cccs3)CC2)nc2ccccc21
AC50 [1]: 10.6 µM (active)

O=C(CSc1ccc2nnc(-c3ccccn3)n2n1)NCc1ccco1
AC50 [2]: 99 µM (active)

O=C1c2cccc3c([N+](=O)[O-])ccc(c23)C(=O)N1c1ccc(Cl)cn1
EC50 (Beta-galactosidase): > 40 µM (inactive)
IC50 [3]: 15.5 µM (active)
EC50 [4]: 1.58 µM (active)
EC50 [5]: 0.905 µM (active)
CC50 [6]: 1.34 µM (active)
CC50 [7]: 10.1 µM (active)
IC50 (cells): 8.7 µM (active)

COc1ccccc1Nc1ccc([N+](=O)[O-])cc1N
IC50 [8]: 8.01 µM (active)
IC50 [9]: 34.5 µM (inactive)
IC50 [10]: 3.2 µM (active)

O=C1C(Cl)=C(Nc2ccc3c[nH]nc3c2)C(=O)c2ccccc21
EC50 [11]: 0.928 µM (active)
EC50 (Streptococcus): 15.1 µM (active)
CC50 (Vero): 9.81 µM (active)
AC50 (INS1): 3.56 µM (active)
CC50 [12]: 2.49 µM (active)

CCOc1ccc(-c2cnc(N)n2C)cc1
AC50 [13]: 93.9 µM (active)

Cc1cccc(-c2nnc(SCC#N)n2-c2ccccc2)c1
AC50 [1]: 3.22 µM (active)

Cc1ccc(-n2c3nc(=O)[nH]c(=O)c-3cc3cc([N+](=O)[O-])ccc32)cc1
IC50 (Hexokinase HKDC1): 10.3 µM (active)
CC50 (Vero): > 40 µM (active)
IC50 (Genome polyprotein): 22.9 µM (active)
IC50 [14]: > 128 µM (inactive)

COc1cc(/C=C/C=C2/CC/C(=C/C=C/c3ccc(O)c(OC)c3)C2=O)ccc1O
IC50 [15]: 8.22 µM (active)
IC50 [16]: 99.4 µM (active)
CC50 [12]: 24.1 µM (active)

O=C(c1ccc(Cl)cc1)N(CCN1CCC(n2c(=O)[nH]c3ccccc32)CC1)C(=O)c1ccc(Cl)cc1
IC50 (Phospholipase D1): 0.21 µM (active)
IC50 (Phospholipase D2): 2.7 µM (active)

O=C(NCCN1CCC2(CC1)C(=O)NCN2c1cccc(Br)c1)c1ccc2ccccc2c1
IC50 (Phospholipase D1): 4.6 µM (active)
IC50 (Phospholipase D2): 0.68 µM (active)

O=C(NCCN1CCC(n2c(=O)[nH]c3ccccc32)CC1)NCc1cccc(F)c1
IC50 (Phospholipase D1): 0.107 µM (active)
IC50 (Phospholipase D2): 1.8 µM (active)
